According to patent US11026944B2, “Compositions and methods for treating insomnia” (Eisai R&D Management Co., Ltd., priority 2014, dated 2021):
Like-named read-outs stand apart in the source and are kept apart here.

Assay: Multiple ascending dose study (002 Study): plasma PK
Type: in vivo, human
Settings: for concentration at 8 h / concentration at 10 h / AUC(0-t) / Cmax / Tmax / half-life: human, oral; for concentration at 8 h: plasma at 8 h, read-out: C8 Mean(SD); for concentration at 10 h: plasma at 10 h, read-out: C10 Mean(SD); for AUC(0-t) / Cmax / Tmax / half-life: plasma; for AUC(0-t): read-out: AUC(0-24) Mean(SD); for Cmax: read-out: Cmax Mean(SD); for Tmax: read-out: tmax Median
Description: A total of 48 healthy adult subjects (18 to 55 years) were to be enrolled into 1 of 6 cohorts sequentially in a gradual dose escalation manner, and randomized to receive either compound A or compound A-matched placebo in the evening 30 minutes before habitual bedtime, and after 3 hours fasting, for 14 days. Each cohort was to comprise 6 compound A-treated subjects and 2 placebo-treated subjects. Blood samples were collected for PK analysis at prespecified timepoints, and PD assessments were conducted.
Blood samples for determination of plasma concentrations of compound A were collected at Day 1 predose and postdose 0.5 (30 minutes), 1, 1.5, 2, 3, 4, 5, 6, 8, 10, and 12 hours; Days 2 to 13: predose; Day 14: predose and postdose 0.5 (30 minutes), 1, 1.5, 2, 3, 4, 5, 6, 8, 10, and 12 hours; Day 15: 24 hours after Day 14 dose; Days 16 to 19: 36, 60, 84, and 108 hours after Day 14 dose; Day 21, 24, 26, 28: As close as possible to 156, 228, 276, and 324 hours after Day 14 dose. Plasma concentrations of compound A were measured in the same manner as described in Example 1 and the above noncompartmental plasma PK parameters were calculated for compound A.
Compound A capsules and compound A-matched placebo capsules were available in strengths of 2.5 mg, 10 mg, and 50 mg. All study drugs were administered as daily doses using one or more compound A-capsules or compound A-matched placebo capsules due to the test dose.

[1] = 2.5 mg, Day 1, 2.5 mg once daily in the evening
[2] = 2.5 mg, Day 14, 2.5 mg once daily for 14 days
[3] = 5 mg, Day 1, 5 mg once daily in the evening
[4] = 5 mg, Day 14, 5 mg once daily for 14 days
[5] = 10 mg, Day 1, 10 mg once daily in the evening
[6] = 10 mg, Day 14, 10 mg once daily for 14 days
[7] = 25 mg, Day 1, 25 mg once daily in the evening
[8] = 25 mg, Day 14, 25 mg once daily for 14 days
[9] = 50 mg, Day 1, 50 mg once daily in the evening
[10] = 50 mg, Day 14, 50 mg once daily for 14 days
[11] = 75 mg, Day 1, 75 mg once daily in the evening
[12] = 75 mg, Day 14, 75 mg once daily for 14 days

Cc1ncc(OC[C@@]2(c3cccc(F)c3)C[C@H]2C(=O)Nc2ccc(F)cn2)c(C)n1 [Compound A, (1R,2 S)-2-(((2,4-dimethylpyrimidin-5-yl)oxy)methyl)-2-(3-fluorophenyl)-N-(5-fluoropyridin-2-yl) cyclopropanecarboxamide]
Accumulation (14 days once daily): lower than predicted by the terminal half-life
Cmax Mean(SD) (Day 1, 25 mg once daily in the evening): 92.0(24.0) ng/mL
t1/2 Mean(SD) (Day 14, 50 mg once daily for 14 days): 55.5(21.3) h
AUC(0-24 h) dose proportionality (dose-normalized data, Day 1): increased slightly less than in proportion to dose
Cmax dose proportionality (dose-normalized data, Day 1 and Day 14): increased slightly less than in proportion to dose
AUC(0-24 h) dose proportionality (dose-normalized data, Day 14): increased in approximate proportion to dose
concentration at 8 h (Day 1, 2.5 mg): 2.33 ng/mL
concentration at 8 h (Day 1, 5 mg): 4.4 ng/mL
concentration at 8 h (Day 1, 10 mg): 8.51 ng/mL
concentration at 8 h (Day 1, 25 mg): 24.1 ng/mL
concentration at 8 h (Day 1, 50 mg): 38.1 ng/mL
concentration at 8 h (Day 1, 75 mg): 54.5 ng/mL
concentration at 10 h (Day 1, 2.5 mg): 2.04 ng/mL
concentration at 10 h (Day 1, 5 mg): 3.63 ng/mL
concentration at 10 h (Day 1, 10 mg): 7.72 ng/mL
concentration at 10 h (Day 1, 25 mg): 19.8 ng/mL
concentration at 10 h (Day 1, 50 mg): 32.9 ng/mL
concentration at 10 h (Day 1, 75 mg): 44.2 ng/mL
AUC(0-t) [1]: 59.4 ng·h/mL
Cmax [1]: 10.1 ng/mL
Tmax [1]: 2.02 h
AUC(0-t) [2]: ~120 ng·h/mL
Cmax [2]: ~15 ng/mL
half-life (2.5 mg, Day 14, 2.5 mg once daily for 14 days, read-out: t1/2 Mean(SD) (converted)): ~44 h
Tmax [2]: ~2 h
AUC(0-t) [3]: 108 ng·h/mL
Cmax [3]: 19.4 ng/mL
Tmax [3]: 1.25 h
AUC(0-t) [4]: ~190 ng·h/mL
Cmax [4]: ~24 ng/mL
half-life (5 mg, Day 14, 5 mg once daily for 14 days, read-out: t1/2 Mean(SD) (converted)): ~46 h
Tmax [4]: ~1 h
AUC(0-t) [5]: 187 ng·h/mL
Cmax [5]: 30.4 ng/mL
Tmax [5]: 3.25 h
AUC(0-t) [6]: ~360 ng·h/mL
Cmax [6]: ~47 ng/mL
half-life (10 mg, Day 14, 10 mg once daily for 14 days, read-out: t1/2 Mean(SD) (converted)): ~55 h
Tmax [6]: ~2 h
half-life (10 mg, doses of 10 mg and higher, following Day 14 dosing, read-out: mean terminal half-life (converted)): ~55 h
AUC(0-t) [7]: 549 ng·h/mL
Tmax [7]: 1.5 h
AUC(0-t) [8]: 1100 ng·h/mL
Cmax [8]: 107 ng/mL
half-life (25 mg, Day 14, 25 mg once daily for 14 days, read-out: t1/2 Mean(SD) (converted)): 50.6 h
Tmax [8]: 3 h
half-life (50 mg, 50-mg dose, read-out: effective half-life based on accumulation (converted)): 28 h
AUC(0-t) [9]: 931 ng·h/mL
Cmax [9]: 199 ng/mL
Tmax [9]: 2 h
AUC(0-t) [10]: 2300 ng·h/mL
Cmax [10]: 220 ng/mL
Tmax [10]: 2.02 h
half-life (75 mg, 75-mg dose, read-out: effective half-life based on accumulation (converted)): 39.3 h
AUC(0-t) [11]: 1260 ng·h/mL
Cmax [11]: 223 ng/mL
Tmax [11]: 3 h
AUC(0-t) [12]: 3790 ng·h/mL
Cmax [12]: 420 ng/mL
half-life (75 mg, Day 14, 75 mg once daily for 14 days, read-out: t1/2 Mean(SD) (converted)): 56.2 h
Tmax [12]: 2 h
half-life (2.5- and 5-mg doses, average, read-out: terminal half-life (converted)): ~45 h
half-life (doses ranging from 2.5 to 25 mg, read-out: effective half-life based on accumulation (converted)): 16.9 to 24.7 h
